Earlier results as cited in patent publication US8796326B1, “Fire ant killer (F.A.K.)/ insecticide” (priority 2008, dated 2014).

Tested on: bacterial contamination on the hands and on treated products

SMILES: Oc1cc(Cl)ccc1Oc1ccc(Cl)cc1Cl [Triclosan, 5-chloro-2-(2,4-dichlorophenoxy)phenol]
- reducing and controlling bacterial contamination: effective
